Values after ≈ are worked out from the molar mass of the structure shown. Read-outs that look alike come from different tables or passages of the source.
Legend:
[1] = molecular target: T1, full-length beta-Catenin (Uniprot ID P35222) (Homo sapiens, UniProt P35222); test: Fluorescence polarization IC50 (beta-catenin / 5FAM-TCF4 10-53 competition); format: binding
T1 construct: 10 nM full-length beta-Catenin (Uniprot ID P35222)
T1 sequence (P35222 1-781): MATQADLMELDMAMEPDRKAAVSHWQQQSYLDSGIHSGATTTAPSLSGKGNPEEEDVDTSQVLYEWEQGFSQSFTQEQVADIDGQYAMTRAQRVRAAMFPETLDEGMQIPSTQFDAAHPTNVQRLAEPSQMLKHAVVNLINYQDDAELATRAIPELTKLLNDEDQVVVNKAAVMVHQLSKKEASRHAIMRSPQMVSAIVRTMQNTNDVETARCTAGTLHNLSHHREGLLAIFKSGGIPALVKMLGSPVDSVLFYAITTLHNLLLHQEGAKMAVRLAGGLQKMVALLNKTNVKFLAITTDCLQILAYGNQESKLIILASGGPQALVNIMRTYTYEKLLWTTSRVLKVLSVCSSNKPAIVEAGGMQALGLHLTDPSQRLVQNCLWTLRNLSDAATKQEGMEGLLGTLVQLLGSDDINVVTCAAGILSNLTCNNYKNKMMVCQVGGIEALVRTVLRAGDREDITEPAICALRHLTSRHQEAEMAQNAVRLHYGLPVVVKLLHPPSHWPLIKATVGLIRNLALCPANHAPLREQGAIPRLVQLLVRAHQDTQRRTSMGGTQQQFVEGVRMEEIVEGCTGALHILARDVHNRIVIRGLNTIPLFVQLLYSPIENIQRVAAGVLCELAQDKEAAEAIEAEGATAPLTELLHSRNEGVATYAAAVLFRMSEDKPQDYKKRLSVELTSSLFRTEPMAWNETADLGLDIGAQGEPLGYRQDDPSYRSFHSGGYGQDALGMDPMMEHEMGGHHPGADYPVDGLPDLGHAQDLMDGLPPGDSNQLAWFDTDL

CHI Log D procedure = format: physicochemical; settings: for CHI Log D: pH 7.4
Solubility in PBS = format: physicochemical
Outline: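 Read-out is the HPLC peak area of the supernatant from ultracentrifuged PBS solution, scaled against a 50 μM peptide DMSO injection; value reported as [(PBS area)/(DMSO area)]*50 uM.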

[2] = fluorescence polarization, read-out: beta-Catenin FP IC50
[3] = Table E2-1, read-out: beta-Catenin FP IC50
[4] = fluorescence polarization, beta-catenin, read-out: FP EC50

IC50 [1, 2]	chromatographic logD (CHI Log D procedure; pH 7.4, CHI Log D)	Solubility (Solubility in PBS; Solubility (uM))	Solubility (Solubility in PBS)	IC50 ([1]; read-out: FP EC50)	CHI Log D (CHI Log D procedure)	IC50 [1, 3]	IC50 [1, 4]	logD (CHI Log D procedure; pH 7.4, CHI Log D)	IC50 ([1]; read-out: beta-Catenin FP IC50)	SMILES
			50 µM (≈ 94.8 µg/mL)		2.143	1340 nM	1340 nM			CC(=O)N1CCC[C@]12CC=CCCCC1(CCCC=CCCCCCC[C@@](C)(C(=O)N[C@@H](Cc3ccccc3)C(=O)N[C@@H](Cc3csc4ccccc34)C(=O)N[C@@H](CCC(N)=O)C(N)=O)NC(=O)[C@H](CCC(N)=O)NC(=O)[C@H](Cc3cccc(C(F)(F)F)c3)NC(=O)[C@H](C)NC(=O)[C@H](C)NC(=O)[C@H](CC(=O)O)NC(=O)[C@H](CC(=O)O)NC1=O)NC(=O)[C@H](C)NC(=O)[C@H](CC(=O)O)NC2=O (stereo partly drawn) [I-378, Ac-PL3-Asp-Ala-B5-Asp-Asp-Ala-Ala-3F3MeF-Gln-S8-Phe-BztA-Gln-NH2]
109 nM			44 µM (≈ 81.1 µg/mL)	109 nM	2.49					CC[C@H](C)[C@@H]1NC(=O)[C@H](CC(=O)O)NC(=O)[C@]2(CC=CCCCC3(CCCC=CCCCCCC[C@@](C)(C(=O)N[C@@H](Cc4ccccc4)C(=O)N[C@@H](Cc4csc5ccccc45)C(=O)N[C@@H](CO)C(N)=O)NC(=O)[C@H](CCC(N)=O)NC(=O)[C@H](Cc4ccccc4)NC(=O)[C@H](C)NC(=O)[C@H](C)NC(=O)[C@H](CCC(=O)O)NC(=O)[C@H](CC(=O)O)NC3=O)NC1=O)CCCN2C(C)=O (stereo partly drawn) [I-639, Ac-PL3-Asp-Ile-B5-Asp-Glu-Ala-Ala-Phe-Gln-S8-Phe-BztA-Ser-NH2]
209 nM			41 µM (≈ 80.3 µg/mL)	209 nM	2.677					CC[C@H](C)[C@@H]1NC(=O)[C@H](CC(=O)O)NC(=O)[C@]2(CC=CCCCC3(CCCC=CCCCCCC[C@@](C)(C(=O)N[C@@H](Cc4ccccc4)C(=O)N[C@@H](Cc4csc5ccccc45)C(=O)N[C@@H](CCC(N)=O)C(N)=O)NC(=O)[C@H](CCC(N)=O)NC(=O)[C@H](Cc4ccccc4)NC(=O)[C@H](C)NC(=O)[C@H](Cc4ccccc4)NC(=O)[C@H](CCC(=O)O)NC(=O)[C@H](CC(=O)O)NC3=O)NC1=O)CCCN2C(C)=O (stereo partly drawn) [I-649, Ac-PL3-Asp-Ile-B5-Asp-Glu-Phe-Ala-Phe-Gln-S8-Phe-BztA-Gln-NH2]
70 nM	2.13		50 µM (≈ 93.1 µg/mL)							CC(=O)N1CCC[C@]12CC=CCCCC1(CCCC=CCCCCCC[C@@](C)(C(=O)N[C@@H](Cc3ccccc3Cl)C(=O)N[C@@H](Cc3csc4ccccc34)C(=O)N[C@@H](CCC(N)=O)C(N)=O)NC(=O)[C@H](CC(N)=O)NC(=O)[C@H](Cc3ccccc3)NC(=O)[C@H](C)NC(=O)[C@H](C)NC(=O)[C@H](CCC(=O)O)NC(=O)[C@H](CC(=O)O)NC1=O)NC(=O)[C@H](C)NC(=O)[C@H](CC(=O)O)NC2=O (stereo partly drawn) [I-435, Ac-PL3-Asp-Ala-B5-Asp-Glu-Ala-Ala-Phe-Asn-S8-2C1F-BztA-Gln-NH2]
45 nM			45 µM (≈ 85.5 µg/mL)	45 nM	2.099					CC[C@H](C)[C@@H]1NC(=O)[C@H](CC(=O)O)NC(=O)[C@]2(CC=CCCCC3(CCCC=CCCCCCC[C@@](C)(C(=O)N[C@@H](Cc4ccccc4)C(=O)N[C@@H](Cc4csc5ccccc45)C(=O)N[C@@H](CCC(N)=O)C(N)=O)NC(=O)[C@H](CCC(N)=O)NC(=O)[C@H](Cc4ccccc4)NC(=O)[C@H](CO)NC(=O)[C@H](C)NC(=O)[C@H](CCC(=O)O)NC(=O)[C@H](CC(=O)O)NC3=O)NC1=O)CCCN2C(C)=O (stereo partly drawn) [I-661, Ac-PL3-Asp-Ile-B5-Asp-Glu-Ala-Ser-Phe-Gln-S8-Phe-BztA-Gln-NH2]

Second part, the compound before the results:

SMILES	IC50 [1, 2]	chromatographic logD (CHI Log D procedure; pH 7.4, CHI Log D)	Solubility (Solubility in PBS; Solubility (uM))	Solubility (Solubility in PBS)	IC50 ([1]; read-out: FP EC50)	CHI Log D (CHI Log D procedure)	IC50 [1, 3]	IC50 [1, 4]	logD (CHI Log D procedure; pH 7.4, CHI Log D)	IC50 ([1]; read-out: beta-Catenin FP IC50)
CC[C@H](C)[C@@H]1NC(=O)[C@H](CC(=O)O)NC(=O)[C@]2(CC=CCCCC3(CCCC=CCCCCCC[C@@](C)(C(=O)N[C@@H](Cc4ccccc4)C(=O)N[C@@H](Cc4csc5ccccc45)C(=O)N[C@@H](CCC(N)=O)C(N)=O)NC(=O)[C@H](CCC(N)=O)NC(=O)[C@H](Cc4cccc(OC)c4)NC(=O)[C@H](C)NC(=O)[C@H](C)NC(=O)[C@H](CCC(=O)O)NC(=O)[C@H](CC(=O)O)NC3=O)NC1=O)CCCN2C(C)=O (stereo partly drawn) [I-724, Ac-PL3-Asp-Ile-B5-Asp-Glu-Ala-Ala-3OMeF-Gln-S8-Phe-BztA-Gln-NH2]	114 nM	2.42	34 µM (≈ 65 µg/mL)							
CC(=O)N1CCC[C@]12CC=CCCCC1(CCCC=CCCCCCC[C@@](C)(C(=O)N[C@@H](Cc3ccccc3)C(=O)N[C@@H](Cc3csc4ccccc34)C(=O)N[C@@H](Cc3c[nH]cn3)C(N)=O)NC(=O)[C@H](CC(N)=O)NC(=O)[C@H](Cc3ccccc3)NC(=O)[C@H](C)NC(=O)[C@H](C)NC(=O)[C@H](CCC(=O)O)NC(=O)[C@H](CC(=O)O)NC1=O)NC(=O)[C@H](CC1CCCCC1)NC(=O)[C@H](CC(=O)O)NC2=O (stereo partly drawn) [I-615, Ac-PL3-Asp-Cha-B5-Asp-Glu-Ala-Ala-Phe-Asn-S8-Phe-BztA-His-NH2]	50 nM	2.83		10 µM (≈ 19.2 µg/mL)						
CC(=O)N1CCC[C@]12CC=CCCCC1(CCCC=CCCCCCC[C@@](C)(C(=O)N[C@@H](Cc3ccccc3)C(=O)N[C@@H](Cc3csc4ccccc34)C(=O)N[C@@H](CCO)C(N)=O)NC(=O)[C@H](CCC(N)=O)NC(=O)[C@H](Cc3ccccc3)NC(=O)[C@H](C)NC(=O)[C@H](C)NC(=O)[C@H](CCC(=O)O)NC(=O)[C@H](CC(=O)O)NC1=O)NC(=O)[C@H](C)NC(=O)[C@H](CC(=O)O)NC2=O (stereo partly drawn) [I-491, Ac-PL3-Asp-Ala-B5-Asp-Glu-Ala-Ala-Phe-Gln-S8-Phe-BztA-Hse-NH2]	153 nM			39 µM (≈ 70.7 µg/mL)	153 nM	2.023				
CC(=O)N1CCC[C@]12CC=CCCCC1(CCCC=CCCCCCC[C@@](C)(C(=O)N[C@@H](Cc3ccccc3)C(=O)N[C@@H](Cc3csc4ccccc34)C(=O)N[C@@H](CCC(N)=O)C(N)=O)NC(=O)[C@H](C(C)C)NC(=O)[C@H](CC3CCCC3)NC(=O)[C@H](C)NC(=O)[C@H](C)NC(=O)[C@H](CCC(=O)O)NC(=O)[C@H](CC(=O)O)NC1=O)NC(=O)[C@H](C)NC(=O)[C@H](CC(=O)O)NC2=O (stereo partly drawn) [I-392, Ac-PL3-Asp-Ala-B5-Asp-Glu-Ala-Ala-CypA-Val-S8-Phe-BztA-Gln-NH2]	5000 nM			10 µM (≈ 18 µg/mL)					2.52	
CC(=O)N1CCC[C@]12CC=CCCCC1(CCCC=CCCCOC(=O)N3CC[C@@](C(=O)N[C@@H](Cc4ccccc4)C(=O)N[C@@H](Cc4csc5ccccc45)C(=O)N[C@@H](CCC(N)=O)C(N)=O)(C3)NC(=O)[C@H](CC(C)C)NC(=O)[C@H](Cc3ccccc3)NC(=O)[C@H](C)NC(=O)[C@H](C)NC(=O)[C@H](CCC(=O)O)NC(=O)[C@H](CC(=O)O)NC1=O)NC(=O)[C@H](CC(C)(C)C)NC(=O)[C@H](CC(=O)O)NC2=O (stereo partly drawn) [I-1074, Ac-PL3-Asp-Npg-B5-Asp-Glu-Ala-Ala-Phe-Leu-PyrS2-Phe-BztA-Gln-NH2]				34 µM (≈ 65.5 µg/mL)		1.92		498 nM		498 nM
CC(=O)N1CCC[C@]12CC=CCCCC1(CCCC=CCCCCCC[C@@](C)(C(=O)N[C@@H](Cc3ccccc3)C(=O)N[C@@H](Cc3csc4ccccc34)C(=O)N[C@@H](CCC(N)=O)C(N)=O)NC(=O)[C@H](CC(N)=O)NC(=O)[C@H](Cc3ccccc3)NC(=O)[C@H](C)NC(=O)[C@H](C)NC(=O)[C@H](CC(=O)O)NC(=O)[C@H](Cc3nn[nH]n3)NC1=O)NC(=O)[C@H](C)NC(=O)[C@H](CC(=O)O)NC2=O (stereo partly drawn) [I-445, Ac-PL3-Asp-Ala-B5-Tetz-Asp-Ala-Ala-Phe-Asn-S8-Phe-BztA-Gln-NH2]	4960 nM	2.05	43 µM (≈ 79 µg/mL)							
CC[C@H](C)[C@@H]1NC(=O)[C@H](CC(=O)O)NC(=O)[C@]2(CC=CCCCC3(CCCC=CCCCCCC[C@@](C)(C(=O)N[C@@H](Cc4ccccc4)C(=O)N[C@@H](Cc4csc5ccccc45)C(=O)N[C@H](C(N)=O)C(C)C)NC(=O)[C@H](CCC(N)=O)NC(=O)[C@H](Cc4ccccc4)NC(=O)[C@H](C)NC(=O)[C@H](C)NC(=O)[C@H](CCC(=O)O)NC(=O)[C@H](CC(=O)O)NC3=O)NC1=O)CCCN2C(C)=O (stereo partly drawn) [I-645, Ac-PL3-Asp-Ile-B5-Asp-Glu-Ala-Ala-Phe-Gln-S8-Phe-BztA-Val-NH2]	395 nM			40 µM (≈ 74.2 µg/mL)	395 nM	2.677				
CC(=O)N1CCC[C@]12CC=CCCCC1(CCCC=CCCCCCC[C@@](C)(C(=O)N[C@@H](Cc3ccccc3)C(=O)N[C@@H](Cc3csc4ccccc34)C(=O)N[C@@H](Cc3c[nH]cn3)C(N)=O)NC(=O)[C@H](CCC(N)=O)NC(=O)[C@H](Cc3ccccc3)NC(=O)[C@H](C)NC(=O)[C@H](C)NC(=O)[C@H](CC(=O)O)NC(=O)[C@H](CC(=O)O)NC1=O)NC(=O)[C@H](C)NC(=O)[C@H](CC(=O)O)NC2=O (stereo partly drawn) [I-361, Ac-PL3-Asp-Ala-B5-Asp-Asp-Ala-Ala-Phe-Gln-S8-Phe-BztA-His-NH2]				46 µM (≈ 84.5 µg/mL)		2.058	42 nM	42 nM		

From patent US20240116985A1, “STAPLED PEPTIDES AND METHODS THEREOF” (priority 2020, published 2024)
